From patent US12319640B2, “Cyclic diones as herbicidal compounds” (SYNGENTA CROP PROTECTION AG, priority 2019, dated 2025)

Assays:
Test in all cases: Glasshouse herbicide test, pre- and post-emergence
Format in all cases: in vivo
Lolium perenne (LOLPE) = conditions: 250 g/h, evaluated after 13 days, five-point scale; for percentage damage caused to the plant, LOLPE POST: post-emergence; for percentage damage caused to the plant, LOLPE PRE: pre-emergence
Method: (§1) Seeds of a variety of test species are sown in standard soil in pots (Lolium perenne (LOLPE), Setaria faberi (SETFA), Alopecurus myosuroides (ALOMY), Echinochloa crus-galli (ECHCG), Avena fatua (AVEFA)). After cultivation for one day (pre-emergence) or after 8 days cultivation (post-emergence) under controlled conditions in a glasshouse (at 24/16° C., day/night; 14 hours light; 65% humidity), the plants are sprayed with an aqueous spray solution derived from the formulation of the technical active ingredient in acetone/water (50:50) solution containing 0.5% Tween 20 (polyoxyethelyene sorbitan monolaurate, CAS RN 9005-64-5). Compounds are applied at 250 g/h. The test plants are then grown in a glasshouse under controlled conditions in a glasshouse (at 24/16° C., day/night; 14 hours light; 65% humidity) and watered twice daily. After 13 days for pre and post-emergence, the test is evaluated for the percentage damage caused to the plant. The biological activities are shown in the following table on a five-point scale (5=80-100%; 4=60-79%; 3=40-59%; 2=20-39%; 1=0-19%).

Setaria faberi (SETFA) = conditions: 250 g/h, evaluated after 13 days, five-point scale; for percentage damage caused to the plant, SETFA POST: post-emergence; for percentage damage caused to the plant, SETFA PRE: pre-emergence
Method: as §1

[1] = system: Alopecurus myosuroides (ALOMY); conditions: 250 g/h, evaluated after 13 days, five-point scale; for percentage damage caused to the plant, ALOMY POST: post-emergence; for percentage damage caused to the plant, ALOMY PRE: pre-emergence
Method: as §1

[2] = system: Echinochloa crus-galli (ECHCG); conditions: 250 g/h, evaluated after 13 days, five-point scale; for percentage damage caused to the plant, ECHCG POST: post-emergence; for percentage damage caused to the plant, ECHCG PRE: pre-emergence
Method: as §1

Avena fatua (AVEFA) = conditions: 250 g/h, evaluated after 13 days, five-point scale; for percentage damage caused to the plant, AVEFA POST: post-emergence; for percentage damage caused to the plant, AVEFA PRE: pre-emergence
Method: as §1

SMILES | percentage damage caused to the plant, LOLPE POST (Lolium perenne (LOLPE)) | percentage damage caused to the plant, LOLPE PRE (Lolium perenne (LOLPE)) | percentage damage caused to the plant, SETFA POST (Setaria faberi (SETFA)) | percentage damage caused to the plant, SETFA PRE (Setaria faberi (SETFA)) | percentage damage caused to the plant, ALOMY POST [1] | percentage damage caused to the plant, ALOMY PRE [1] | percentage damage caused to the plant, ECHCG POST [2] | percentage damage caused to the plant, ECHCG PRE [2] | percentage damage caused to the plant, AVEFA POST (Avena fatua (AVEFA)) | percentage damage caused to the plant, AVEFA PRE (Avena fatua (AVEFA))
CC#Cc1cc(C)c(C2C(=O)CC3(CCC(NC(C)=O)CC3)CC2=O)c(C)c1 (stereo not shown) [Compound 2.001, N-[3-(2,6-dimethyl-4-prop-1-ynyl-phenyl)-2,4-dioxo-spiro[5.5]undecan-9-yl]acetamide] | 5 (5=80-100%) | 5 (5=80-100%) | 5 (5=80-100%) | 5 (5=80-100%) | 5 (5=80-100%) | 5 (5=80-100%) | 5 (5=80-100%) | 5 (5=80-100%) | 5 (5=80-100%) | 5 (5=80-100%)
CC#Cc1cc(C)c(C2C(=O)CC3(CCC(C(=O)N4CCOCC4)CC3)CC2=O)c(C)c1 (stereo not shown) [Compound 1.008] | 5 (5=80-100%) | 5 (5=80-100%) | 4 (4=60-79%) | 5 (5=80-100%) | 5 (5=80-100%) | 4 (4=60-79%) | 5 (5=80-100%) | 5 (5=80-100%) | 5 (5=80-100%) | 3 (3=40-59%)
CC#Cc1cc(C)c(C2C(=O)CC3(CCC(C(=O)Nc4ccccn4)CC3)CC2=O)c(C)c1 (stereo not shown) [Compound 1.004] | 4 (4=60-79%) | 4 (4=60-79%) | 4 (4=60-79%) | 5 (5=80-100%) | 4 (4=60-79%) | 3 (3=40-59%) | 4 (4=60-79%) | 5 (5=80-100%) | 5 (5=80-100%) | 4 (4=60-79%)
CNC(=O)C1CCC2(CC1)CC(=O)C(c1c(C)cc(-c3ccc(Cl)cn3)cc1C)C(=O)C2 (stereo not shown) [Compound 1.022] | 5 (5=80-100%) | 5 (5=80-100%) | 5 (5=80-100%) | 5 (5=80-100%) | 5 (5=80-100%) | 5 (5=80-100%) | 5 (5=80-100%) | 5 (5=80-100%) | 5 (5=80-100%) | 5 (5=80-100%)
CC#Cc1cc(C)c(C2C(=O)CC3(CCC(NC(=O)c4ccc(OC)nn4)CC3)CC2=O)c(C)c1 (stereo not shown) [Compound 2.014] | 5 (5=80-100%) | 5 (5=80-100%) | 5 (5=80-100%) | 5 (5=80-100%) | 5 (5=80-100%) | 5 (5=80-100%) | 5 (5=80-100%) | 5 (5=80-100%) | 5 (5=80-100%) | 5 (5=80-100%)
CC#Cc1cc(C)c(C2C(=O)CC3(CCC(NC(=O)NC(=O)C(C)(C)C)CC3)CC2=O)c(C)c1 (stereo not shown) [Compound 2.022] | 5 (5=80-100%) | 5 (5=80-100%) | 5 (5=80-100%) | 5 (5=80-100%) | 5 (5=80-100%) | 5 (5=80-100%) | 5 (5=80-100%) | 5 (5=80-100%) | 5 (5=80-100%) | 3 (3=40-59%)
CC#Cc1cc(C)c(C2C(=O)CC3(CC2=O)CC(C(=O)NC)C3)c(C)c1 (stereo not shown) [Compound 1.017] | 5 (5=80-100%) | 5 (5=80-100%) | 5 (5=80-100%) | 5 (5=80-100%) | 5 (5=80-100%) | 5 (5=80-100%) | 5 (5=80-100%) | 5 (5=80-100%) | 5 (5=80-100%) | 5 (5=80-100%)
